Laboratory results as given in patent US6207399A, “Methods of determining endogenous thrombin potential (ETP) and thrombin substrates for use in said methods” (Hemker; Hendrik Coenraad, priority 1995, dated 2001).
Square brackets hold non-standard residues; d marks the D form. Peptide text beside a SMILES is read from it. * marks the point of attachment. pNA = O=[N+]([O-])c1ccc(N*)cc1; Tos = Cc1ccc(S(=O)(=O)*)cc1; Pip = O=C(O)[C@@H]1CCCCN1; Nle = CCCC[C@H](N)C(=O)O; Orn = NCCC[C@H](N)C(=O)O

What was measured:
human α-thrombin = biological target: T1, human α-thrombin (Homo sapiens, UniProt P00734); test: Kinetics of hydrolysis of substrates by human α-thrombin in buffer A at 37° C. (Example 2, Table 1); assay type: biochemical; set-up: key to kcat: NH: not hydrolyzed by thrombin
T1 construct: Pure human α-thrombin; gift of Dr. T. Lindhout (University of Limburg, Maastricht)
Experimental: (§1) Kinetic parameters: The hydrolysis experiments were run in buffer A at 37° C. The liberation of p-nitroaniline was monitored at 405 nm in a dual wavelength (405-546 nm) spectrophotometer made in our workshop, using a personal computer for data recording. In a polystyrene microcuvette (total volume 500 μL), buffer A and substrate solution were added to obtain a final substrate concentration between 1 to 2000 μM. After 5 min of incubation at 37° C., enzyme solution was added to achieve a final concentration between 0.5 to 100 nM. The measurement was carried out at 37° C. in a thermostated cuvette-holder. The Michaelis constant (Km) and the catalytic constant (kcat) were obtained by measuring initial reaction velocities at different substrate concentrations. The data obtained were fitted by linear regression on the Michaelis-Menten equation.
(§2) Kinetic parameters: In a preliminary experiment, the substrate was hydrolyzed under the following conditions: enzyme concentration: 10 to 20 nM, substrate concentration: 200 μM in buffer A to get an impression of the initial velocity. […] The results are given in table 1 and 2 for thrombin and factor Xa respectively. The Km and kcat for each substrate were determined from the initial velocities measured for at least six substrate concentrations in the concentration range as given. The enzyme concentration used gives a good signal to noise ratio. The data given are obtained from one or two experiments. The data from table 1 and 2 were only used as the first selection criterion to get a rough impression of the hydrolysis behaviour. Notwithstanding the preliminary character of the measurement it was helpful in the design of the substrates of our interest.

factor Xa = biological target: T2, factor Xa (Homo sapiens, UniProt P00742); test: Kinetics of hydrolysis of substrates by human factor Xa in buffer A at 37° C. (Example 2, Table 2); assay type: biochemical; set-up: key to kcat: NH: not hydrolyzed by factor Xa
T2 construct: human factor Xa samples; gift of Dr. T. Lindhout (University of Limburg, Maastricht)
T2 sequence (P00742 41-179 limits assumed): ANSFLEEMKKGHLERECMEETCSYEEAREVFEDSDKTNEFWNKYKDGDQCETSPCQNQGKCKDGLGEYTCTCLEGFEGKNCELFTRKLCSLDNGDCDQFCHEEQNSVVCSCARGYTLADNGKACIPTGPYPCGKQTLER
T2 sequence (P00742 235-488 limits assumed): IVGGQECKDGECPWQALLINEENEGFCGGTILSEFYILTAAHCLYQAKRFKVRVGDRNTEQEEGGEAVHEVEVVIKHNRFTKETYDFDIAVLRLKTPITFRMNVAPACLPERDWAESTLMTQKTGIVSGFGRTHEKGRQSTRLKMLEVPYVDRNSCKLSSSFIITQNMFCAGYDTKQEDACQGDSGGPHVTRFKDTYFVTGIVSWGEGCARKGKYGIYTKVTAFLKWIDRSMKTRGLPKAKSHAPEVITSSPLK
Experimental: as §1, §2

| SMILES | Km (human α-thrombin) [µM] | kcat (human α-thrombin) | kcat /Km (human α-thrombin) [M/s] | kcat (factor Xa) | Km (factor Xa) [µM] | kcat /Km (factor Xa) [M/s] |
| --- | --- | --- | --- | --- | --- | --- |
| Cl.N[C@H](Cc1ccccc1)C(=O)N1CCCC[C@H]1C(=O)N[C@@H](CCC(=O)O)C(=O)Nc1ccc([N+](=O)[O-])cc1 [HCl.H-D-Phe-Pip-Glu-pNA] (H-[dF]-[Pip]-Glu-pNA) | 474 | 0.35 s⁻¹ | 739 | NH | – | – |
| Cl.Cl.NCC(=O)N[C@@H](CCCN=C(N)N)C(=O)Nc1ccc([N+](=O)[O-])cc1 [2HCl.H-Gly-Arg-pNA] (H-Gly-Arg-pNA) | 2280 | 0.107 s⁻¹ | 46.9 | – | – | – |
| COC(=O)C(C)C(=O)NCC(=O)NC(CCCNC(=N)N)C(=O)Nc1ccc([N+](=O)[O-])cc1.Cl (mixture of isomers) [MMZ-Gly-Arg-pNA.HCl] | 1740 | 6.60 s⁻¹ | 3800 | 43.9 s⁻¹ | 6400 | 6860 |
| COC(=O)C(C)(C)C(=O)NCC(=O)N[C@@H](CCCNC(=N)N)C(=O)Nc1ccc([N+](=O)[O-])cc1.Cl [DMMZ-Gly-Arg-pNA.HCl] | 902 | 6.44 s⁻¹ | 7140 | 13.6 s⁻¹ | 2840 | 4790 |
| Cl.Cl.N=C(N)NCCC[C@H](NC(=O)[C@@H]1CCCN1C(=O)[C@H](N)Cc1ccccc1)C(=O)Nc1ccc([N+](=O)[O-])cc1 [2HCl.H-D-Phe-Pro-Arg-pNA] | 3.16 | 28.4 s⁻¹ | 8.99e+06 | 18.7 s⁻¹ | 693 | 26900 |
| NC(N)=NCCC[C@H](NC(=O)[C@@H]1CCCCN1C(=O)[C@H](N)Cc1ccccc1)C(=O)Nc1ccc([N+](=O)[O-])cc1 [2HCl.H-D-Phe-Pip-Arg-pNA] | 5.62 | 236.5 s⁻¹ | 4.21e+07 | 7.49 s⁻¹ | 174 | 42900 |
| Cl.Cl.NCCC[C@H](NC(=O)[C@@H]1CCCCN1C(=O)[C@H](N)Cc1ccccc1)C(=O)Nc1ccc([N+](=O)[O-])cc1 [2HCl.H-D-Phe-Pip-Orn-pNA] (H-[dF]-[Pip]-[Orn]-pNA) | 420 | 4.64 s⁻¹ | 11100 | – | – | – |
| CCCC[C@H](NC(=O)[C@@H]1CCCCN1C(=O)[C@H](N)Cc1ccccc1)C(=O)Nc1ccc([N+](=O)[O-])cc1.Cl [HCl.H-D-Phe-Pip-Nle-pNA] (H-[dF]-[Pip]-[Nle]-pNA) | 943 | 11.4 s⁻¹ | 12100 | NH | – | – |
| Cc1ccc(S(=O)(=O)NCC(=O)N[C@@H](CCCNC(=N)N)C(=O)Nc2ccc([N+](=O)[O-])cc2)cc1.Cl [pTS-Gly-Arg-pNA.HCl] (Tos-Gly-Arg-pNA) | – | NH | – | 9.26 s⁻¹ | 233 | 39800 |
| COC(=O)CC(=O)N[C@H](C)C(=O)N[C@@H](CCCNC(=N)N)C(=O)Nc1ccc([N+](=O)[O-])cc1.Cl [MZ-D-Ala-Arg-pNA.HCl] | 1330 | 0.059 s⁻¹ | 44.4 | 0.088 s⁻¹ | 3080 | 28.5 |
| COC(=O)CC(=O)N[C@@H](C(=O)N[C@@H](CCCNC(=N)N)C(=O)Nc1ccc([N+](=O)[O-])cc1)C(C)C.Cl [MZ-D-Val-Arg-pNA.HCl] | 1310 | 0.146 s⁻¹ | 111 | 0.13 s⁻¹ | 1820 | 69.5 |
| C[C@H](N)C(=O)N[C@@H](CCCNC(=N)N)C(=O)Nc1ccc([N+](=O)[O-])cc1.Cl.Cl [2HCl.H-Ala-Arg-pNA] (H-Ala-Arg-pNA) | 1140 | 0.074 s⁻¹ | 64.9 | – | – | – |
| COC(=O)C(C)(C)C(=O)N[C@@H](C)C(=O)N[C@@H](CCCNC(=N)N)C(=O)Nc1ccc([N+](=O)[O-])cc1.Cl [DMMZ-Ala-Arg-pNA.HCl] | 565 | 4.08 s⁻¹ | 7220 | 11.04 s⁻¹ | 2240 | 4930 |
| CCCC[C@H](NC(=O)[C@@H]1CCCN1C(=O)[C@H](N)Cc1ccccc1)C(=O)Nc1ccc([N+](=O)[O-])cc1.Cl [HCl.H-D-Phe-Pro-Nle-pNA] (H-[dF]-Pro-[Nle]-pNA) | 87.9 | 6.66 s⁻¹ | 75400 | – | – | – |
| COC(=O)CC(=O)N[C@@H](C)C(=O)N[C@@H](CCCNC(=N)N)C(=O)Nc1ccc([N+](=O)[O-])cc1.Cl [MZ-Ala-Arg-pNA.HCl] | 1540 | 107.5 s⁻¹ | 69900 | 51.7 s⁻¹ | 5590 | 9250 |
| CCC(CC)(C(=O)NCC(=O)N[C@@H](CCCNC(=N)N)C(=O)Nc1ccc([N+](=O)[O-])cc1)C(=O)OC.Cl [DEMZ-Gly-Arg-pNA.HCl] | 866 | 1.73 s⁻¹ | 1990 | 4.54 s⁻¹ | 2320 | 1960 |
| Cl.N=C(N)NCCC[C@H](NC(=O)CNS(=O)(=O)c1ccc2ccccc2c1)C(=O)Nc1ccc([N+](=O)[O-])cc1 [βNS-Gly-Arg-pNA.HCl] | – | NH | – | 2.00 s⁻¹ | 116 | 17300 |
| CC(C)[C@@H](N)C(=O)N[C@@H](CCCNC(=N)N)C(=O)Nc1ccc([N+](=O)[O-])cc1.Cl.Cl [2HCl.H-D-Val-Arg-pNA] (H-[dV]-Arg-pNA) | 4250 | 0.28 s⁻¹ | 65.9 | – | – | – |
| C[C@@H](N)C(=O)N[C@@H](CCCNC(=N)N)C(=O)Nc1ccc([N+](=O)[O-])cc1.Cl.Cl [2HCl.H-D-Ala-Arg-pNA] (H-[dA]-Arg-pNA) | 4080 | 0.096 s⁻¹ | 23.5 | – | – | – |
| COC(=O)C(C)C(=O)NC(C)C(=O)NC(CCCNC(=N)N)C(=O)Nc1ccc([N+](=O)[O-])cc1.Cl (mixture of isomers) [MMZ-Ala-Arg-pNA.HCl] | 666 | 16.5 s⁻¹ | 24800 | 40.6 s⁻¹ | 7050 | 5750 |
| COc1ccc(COC(=O)NCC(=O)N[C@@H](CCCNC(=N)N)C(=O)Nc2ccc([N+](=O)[O-])cc2)cc1.Cl [MZ-Gly-Arg-pNA.HCl] | 2540 | 12.3 s⁻¹ | 4850 | 55.0 s⁻¹ | 4700 | 11700 |
| Cl.Cl.NCCCC[C@H](NC(=O)[C@@H]1CCCCN1C(=O)[C@H](N)Cc1ccccc1)C(=O)Nc1ccc([N+](=O)[O-])cc1 [2HCl.H-D-Phe-Pip-Lys-pNA] (H-[dF]-[Pip]-Lys-pNA) | 65.1 | 118.3 s⁻¹ | 1.82e+06 | 0.61 s⁻¹ | 963 | 631 |
